# Measurements as given in patent publication US6653296B1, “Antiretroviral enantiomeric nucleotide analogs” (Institute of Organic Chemistry and Biochemistry of the …, priority 1992, dated 2003).
# Where two headings read alike, the source gives them in different places. Marks after values point to notes of the source that are not given here.
# Key:
# HIV-1 = HIV-1 induced cytopathicity in MT-4 cells; format: cell-based, human immunodeficiency virus type 1; settings: for EC50 HIV-1: concentration required to inhibit HIV-induced cytopathicity in MT-4 cells by 50%, 5 days
# Procedure: (§1) The activity of the compounds against HIV-1 and HIV-2 induced cytopathicity was examined in human lymphocyte MT-4 cells. […] The infected cell cultures were then incubated at 37° C. for 5 days in a humidified CO2-controlled incubator. Then, the cytopathicity of the virus was examined by determination of MT-4 cell viability by trypan blue dye staining.
# HIV-2 = HIV-2 induced cytopathicity in MT-4 cells; format: cell-based, human immunodeficiency virus type 2; settings: for EC50 HIV-2: concentration required to inhibit HIV-induced cytopathicity in MT-4 cells by 50%, 5 days
# Procedure: as §1
# [1] = tested on: Moloney murine sarcoma virus (MSV); test: MSV-induced transformation of C3H/3T3 cells; format: cell-based; settings: concentration required to inhibit MSV-induced C3H/3T3 cell transformation by 50%; day 6
# Procedure: The cells were seeded in 1-ml-wells of a 48-well microtiter plate and exposed to 80 PFU (plaque forming units) for 60-90 minutes. Then, the virus was removed and culture medium containing appropriate concentrations of the test compounds were added (1 ml per well). At day 6 post infection, MSV-induced transformation of the cell culture was examined microscopically.
# C3H/3T3 cells = test: Microscopic alteration of C3H/3T3 cell culture morphology; format: cell-based, murine; settings: concentration that results in a microscopic alteration of the C3H/3T3 cell culture morphology
# [2] = tested on: Moloney murine sarcoma virus (MSV); test: MSV-induced tumor formation and death in newborn NMRI mice, intraperitoneal administration; format: in vivo; settings: for Mean day of animal death: observed 20 days
# Procedure: Two gram newborn NMRI mice were injected intramuscularly in the left hind leg with 50 μl of 250-fold diluted stock preparation of Moloney murine sarcoma virus. […] Another group of mice (20 animals) was administered RPMI-1640 medium as placebo. All compounds were solubilized in RPMI-1640 medium. The mice were observed daily for 20 days and the day of tumor initiation and the day of animal death was recorded for each animal. Statistical analyses were performed by calculating the standard deviation.
# MT-4 cells = test: MT-4 cell viability (trypan blue); format: cell-based, human
# Procedure: The activity of the compounds against HIV-1 and HIV-2 induced cytopathicity was examined in human lymphocyte MT-4 cells. […]. The infected cell cultures were then incubated at 37° C. for 5 days in a humidified CO2-controlled incubator. Then, the cytopathicity of the virus was examined by determination of MT-4 cell viability by trypan blue dye staining. The results are summarized in Table 1 in comparison with the data on the prototype compounds.
# retrovirus = test: Anti-retrovirus activity in vitro, conclusions on Table 1 (HIV-1, HIV-2, MSV); format: cell-based
# [3] = tested on: Moloney murine sarcoma virus (MSV); test: MSV-induced tumor formation in NMRI mice, oral administration; format: in vivo
# Procedure: Three-week-old NMRI mice (about 10 grams body weight) were injected intramuscularly in the left hind leg with 50 μl of 20-fold diluted stock preparation of Moloney murine sarcoma virus. Starting 2-4 hours before virus infection, six animals received an orally administered test compound twice a day at 100 mg/kg(total dose) daily for five subsequent days. The control (placebo) group consisted of 14 animals. The experiment was evaluated as described in Example 35.
# herpes viruses = settings: racemic mixtures, prior art; cited from earlier work
# [4] = twice a day, 100 mg/kg total daily dose for five days
compound,measurement,setting,value
"CCC(C)Nc1nc(N)nc2c1ncn2C[C@@H](C)OCP(=O)(O)O (stereo partly drawn) [(R)-9-PMP-6-(2-butyl)-DAP, 9-(R)-(2-Phosphonomethoxypropyl)-2-amino-6-(2-butyl)aminopurine]",EC50 HIV-1,HIV-1,30 ± 19 µg/mL
same,EC50 HIV-2,HIV-2,25 ± 15 µg/mL
same,EC50 MSV,[1],3.5 µg/mL
"C[C@H](Cn1cnc2c(NCc3ccccc3)nc(N)nc21)OCP(=O)(O)O [(R)-9-PMP-6-benzyl-DAP, 9-(R)-(2-Phosphonomethoxypropyl)-2-amino-6-benzylaminopurine]",EC50 HIV-1,HIV-1,10.3 µg/mL
same,EC50 HIV-2,HIV-2,8 µg/mL
same,EC50 MSV,[1],0.3 µg/mL
"CCCCNc1nc(N)nc2c1ncn2C[C@@H](C)OCP(=O)(O)O [(R)-9-PMP-6-butyl-DAP, 9-(R)-(2-Phosphonomethoxypropyl)-2-amino-6-butylaminopurine]",EC50 HIV-1,HIV-1,13.1 µg/mL
same,EC50 HIV-2,HIV-2,9.8 µg/mL
same,EC50 MSV,[1],3.27 µg/mL
"C[C@H](Cn1cnc2c(NC3CCCCC3)nc(N)nc21)OCP(=O)(O)O [(R)-9-PMP-6-cyclohexyl-DAP, 9-(R)-(2-Phosphonomethoxypropyl)-2-amino-6-cyclohexylaminopurine]",EC50 HIV-1,HIV-1,8.0 µg/mL
same,EC50 HIV-2,HIV-2,7 µg/mL
"C[C@H](Cn1cnc2c(N(C)C)nc(N)nc21)OCP(=O)(O)O [(R)-9-PMP-6-dimethyl-DAP, 9-(R)-(2-Phosphonomethoxypropyl)-2-amino-6-dimethylaminopurine]",EC50 HIV-1,HIV-1,2.3 µg/mL
same,EC50 HIV-2,HIV-2,4.2 µg/mL
same,EC50 MSV,[1],3.25 µg/mL
"C[C@H](Cn1cnc2c(N3CCOCC3)nc(N)nc21)OCP(=O)(O)O [(R)-9-PMP-6-morpholino-DAP, 9-(R)-(2-Phosphonomethoxypropyl)-2-amino-6-morpholinopurine]",EC50 HIV-1,HIV-1,>100 µg/mL
same,EC50 HIV-2,HIV-2,>100 µg/mL
same,EC50 MSV,[1],6.1 µg/mL
"C[C@H](Cn1cnc2c(N3CCCCC3)nc(N)nc21)OCP(=O)(O)O [(R)-9-PMP-6-piperidino-DAP, 9-(R)-(2-Phosphonomethoxypropyl)-2-amino-6-piperidinopurine]",EC50 HIV-1,HIV-1,>100 µg/mL
same,EC50 HIV-2,HIV-2,>100 µg/mL
same,EC50 MSV,[1],12.6 µg/mL
"C[C@H](Cn1cnc2c(S)nc(N)nc21)OCP(=O)(O)O [(R)-9-PMP-6-thioG, 9-(R)-(2-Phosphonomethoxypropyl)-2-amino-6-thiopurine]",EC50 HIV-1,HIV-1,>100 µg/mL
same,EC50 HIV-2,HIV-2,>100 µg/mL
same,EC50 MSV,[1],3.94 µg/mL
"C[C@H](Cn1cnc2c(S)ncnc21)OCP(=O)(O)O [(R)-9-PMP-6-thioPu, 9-(R)-(2-Phosphonomethoxypropyl)-6-mercaptopurine]",EC50 HIV-1,HIV-1,>100 µg/mL
same,EC50 HIV-2,HIV-2,>100 µg/mL
same,EC50 MSV,[1],18 µg/mL
"C[C@H](Cn1nnc2c(N)ncnc21)OCP(=O)(O)O [(R)-9-PMP-8-azaA, 9-(R)-(2-Phosphonomethoxypropyl)-8-azaadenine]",EC50 HIV-1,HIV-1,2.42 µg/mL
same,EC50 HIV-2,HIV-2,1.75 µg/mL
same,EC50 MSV,[1],0.43 µg/mL
"Nc1ncnc2c1ncn2C[C@H](CF)OCP(=O)(O)O [(R)-FPMPA, reference compound]",MIC,C3H/3T3 cells,>100 µg/mL
same,Mean day of animal death,[2]; single i.p. dose 20 mg/kg,10.4 ± 0.52 days
same,Mean day of animal death,[2]; single i.p. dose 50 mg/kg,11.2 ± 0.92 days
"Nc1nc(N)c2ncn(C[C@H](CF)OCP(=O)(O)O)c2n1 [(R)-FPMPDAP, reference compound]",MIC,C3H/3T3 cells,>100 µg/mL
same,Mean day of animal death,[2]; single i.p. dose 10 mg/kg,12.0 ± 1.0 days
same,Mean day of animal death,[2]; single i.p. dose 25 mg/kg,14.1 ± 1.5 days
same,Mean day of animal death,[2]; single i.p. dose 50 mg/kg,13.9 ± 1.4 days
"C[C@H](Cn1cnc2c(N)ncnc21)OCP(=O)(O)O [(R)-PMPA, 9-(R)-(2-Phosphonomethoxypropyl)adenine]",toxicity to the cells,MT-4 cells,non-toxic
same,MIC,C3H/3T3 cells,>100 µg/mL
same,inhibiting tumor initiation and prolonging the life-span of MSV-infected mice (in words),[2]; i.p.,highly effective
same,Mean day of animal death,[2]; single i.p. dose 2 mg/kg,12.6 ± 1.26 days
same,Mean day of animal death,[2]; single i.p. dose 5 mg/kg,14.4 ± 0.47 days
same,Mean day of animal death,[2]; single i.p. dose 10 mg/kg,18.3 ± 1.10 days
same,percentage of MSV-infected mice still alive at day 20 post infection,[2]; single i.p. dose 20 mg/kg,100%
same,Mean day of animal death,[2]; single i.p. dose 20 mg/kg,> 20 days
same,percentage of MSV-infected mice still alive at day 20 post infection,[2]; single i.p. dose 50 mg/kg,100%
same,Mean day of animal death,[2]; single i.p. dose 50 mg/kg,> 20 days
same,protection against MSV-induced tumor development (in words),[2]; single i.p. dose of 50 mg/kg,full protection
same,increasing the mean day of tumor initiation and animal death (in words),[2]; single i.p. dose of 10-50 mg/kg,markedly effective
same,concentration markedly inhibitory to retrovirus replication,"retrovirus; in vitro, summary of Table 1",1 to 2 µg/mL
"C[C@H](Cn1cnc2c(N)nc(N)nc21)OCP(=O)(O)O [(R)-PMPDAP, 9-(R)-(2-Phosphonomethoxypropyl)-2,6-diaminopurine]",selectivity index (ratio cytotoxic dose/antivirally active dose) for HIV-1,HIV-1; MT-4 cells,> 2 000
same,selectivity index (ratio cytotoxic dose/antivirally active dose) for HIV-2,HIV-2; MT-4 cells,> 2 000
same,toxicity to the cells,MT-4 cells; at 100 μg/ml,non-toxic
same,MIC,C3H/3T3 cells,>100 µg/mL
same,in vivo anti-MSV activity relative to (R)-PMPA,[2]; i.p.,five-fold superior over (R)-PMPA
same,inhibiting tumor initiation and prolonging the life-span of MSV-infected mice (in words),[2]; i.p.,highly effective
same,percentage of MSV-infected mice still alive at day 20 post infection,[2]; single i.p. dose 2 mg/kg,70%
same,percentage of MSV-infected mice without tumor at day 20 post infection,[2]; single i.p. dose 2 mg/kg,36%
same,Mean day of animal death,[2]; single i.p. dose 2 mg/kg,15 days
same,percentage of MSV-infected mice still alive at day 20 post infection,[2]; single i.p. dose 5 mg/kg,90%
same,Mean day of animal death,[2]; single i.p. dose 5 mg/kg,16.5 days
same,percentage of MSV-infected mice still alive at day 20 post infection,[2]; single i.p. dose 10 mg/kg,90%
same,Mean day of animal death,[2]; single i.p. dose 10 mg/kg,18.5 days
same,percentage of MSV-infected mice still alive at day 20 post infection,[2]; single i.p. dose 20 mg/kg,95%
same,Mean day of animal death,[2]; single i.p. dose 20 mg/kg,18 days
same,protection of the animals against MSV-induced tumor development,[2]; single i.p. dose of 10-20 mg/kg,90-95%
same,increase of the mean day of tumor initiation,[3]; 100 mg/kg/day,50%
same,Mean day of tumor initiation,[3]; [4],7.5 ± 1.0*^) day
same,Number of mice developing tumor (%),[3]; [4],67%
"C[C@H](Cn1cnc2c(=O)[nH]c(N)nc21)OCP(=O)(O)O [(R)-PMPG, 9-(R)-(2-phosphonomethoxypropyl)guanine]",MIC,C3H/3T3 cells,40 µg/mL
"Nc1ncnc2c1ncn2C[C@@H](CF)OCP(=O)(O)O [(S)-FPMPA, reference compound]",MIC,C3H/3T3 cells,>100 µg/mL
same,Mean day of animal death,[2]; single i.p. dose 10 mg/kg,13.6 ± 2.8 days
same,Mean day of animal death,[2]; single i.p. dose 20 mg/kg,17.2 ± 2.2 days
same,percentage of MSV-infected mice still alive at day 20 post infection,[2]; single i.p. dose 50 mg/kg,100%
same,Mean day of animal death,[2]; single i.p. dose 50 mg/kg,> 20 days
"Nc1nc(N)c2ncn(C[C@@H](CF)OCP(=O)(O)O)c2n1 [(S)-FPMPDAP, reference compound]",MIC,C3H/3T3 cells,>100 µg/mL
same,Mean day of animal death,[2]; single i.p. dose 10 mg/kg,16.7 ± 3.2 days
same,Mean day of animal death,[2]; single i.p. dose 25 mg/kg,14.6 ± 2.2 days
same,Mean day of animal death,[2]; single i.p. dose 50 mg/kg,16.5 ± 0.71 days
"C[C@@H](Cn1cnc2c(N)ncnc21)OCP(=O)(O)O [(S)-PMPA, 9-(S)-(2-Phosphonomethoxypropyl)adenine]",MIC,C3H/3T3 cells,>100 µg/mL
same,antiretroviral activity in vivo (in words),[2]; i.p. dose of 50 mg/kg,no marked antiretroviral activity
same,Mean day of animal death,[2]; single i.p. dose 10 mg/kg,10.9 ± 0.88 days
same,Mean day of animal death,[2]; single i.p. dose 20 mg/kg,10.9 ± 0.88 days
same,Mean day of animal death,[2]; single i.p. dose 50 mg/kg,12.4 ± 0.84 days
same,antiretroviral activity in vitro (in words),retrovirus,devoid of marked antiretroviral activity
"C[C@@H](Cn1cnc2c(N)nc(N)nc21)OCP(=O)(O)O [(S)-PMPDAP, 9-(S)-(2-phosphonomethoxypropyl)-2,6-diaminopurine]",MIC,C3H/3T3 cells,>100 µg/mL
"C[C@@H](Cn1cnc2c(=O)[nH]c(N)nc21)OCP(=O)(O)O [(S)-PMPG, 9-(S)-(2-Phosphonomethoxypropyl)guanine]",MIC,C3H/3T3 cells,8 µg/mL
"Nc1ncnc2c1ncn2CCOCP(=O)(O)O [PMEA, reference compound]",MIC,C3H/3T3 cells,>100 µg/mL
CC(Cn1cnc2c(=O)[nH]c(N)nc21)OCP(=O)(O)O (stereo not shown) [PMPG],antiherpetic effect (in words),herpes viruses,due to its substantial cytotoxicity
